Results taken from patent US7671077B2, “Neuroprotective small organic molecules, compositions and uses related thereto” (priority 2004, dated 2010).

System: midbrain dopaminergic neurons
Assay: Dopamine (DA) uptake assay in primary midbrain cultures
Assay type: cell-based, rat
Conditions: midbrain culture; for activity at 10 µM: compound concentration 10 μM; for activity at 20 µM: compound concentration 20 μM; for activity at 1.25 µM: compound concentration 1.25 μM; for activity at 0.7 µM: compound concentration 0.7 μM; for activity at 5 µM: compound concentration 5 μM
Experimental: Primary midbrain cultures were prepared from rat embryo ventral mesencephalon as described previously by Lin et al (1994). In brief, rostral mesencephalic tegmentum of embryonic day 16 rat embryos was collected in DMEM/F12 (Hyclone SH30023.01) containing 2 mM glutamine on ice, The tissue was treated with 0.1% trypsin in Hanks' balanced salt solution (HBSS, Gibco 14175-095) for 15 min at 37° C. and dissociated mechanically by mild trituration with a fire-polished glass pipet in growth medium plus 2% heat-inactivated fetal bovine serum (FBS). The growth medium consisted of equal volumes of Dulbecco's minimal essential medium DMEM (Gibco 12100-046) and HAM's F12 nutrient mixture (Gibco 21700-075) supplemented with 33 mM glucose, 13 mM sodium bicarbonate, 5 mM HEPES, 2 mM glutamine, 25 μg/ml insulin, 100 μg/ml transferrin, 60 μM putrescine, 20 nM progesterone, 30 nM sodium selenite, 5 U/ml penicillin G and 5 μg/ml streptomycin. 24-well tissue culture plate was coated by adding 15 μg/ml poly-1-ornithine hydrobromide solution at 0.5 ml/well, incubated at room temperature for 1 hr. The coating solution was removed and the well washed 3 times with distilled water and one wash with HBSS. The dissociated cells were plated onto polyornithine-coated wells at 250,000-350,000 trypan blue-excluding viable cells per well in 500 μl of above medium containing 1% FBS. After 3 h when most of the cells had adhered to the bottom of the well, the medium was replaced with 500 μl of fresh medium without FBS. A serial dilution of the sample to be assayed for trophic activity was added to each well in duplicate at the time of medium change or within 24 h thereafter. Unless otherwise stated, cultures were incubated at 37° C. without any further medium change up to 7 days. Primary hindbrain cultures were prepared as described for the midbrain cultures except that the rostral raphe region (instead of the rostral mesencephalon) was dissected and trypsinized for 20 (instead of 15) min.
[^3H]DA uptake was measured in cultures at day 7, and all the solutions were maintained at 37° C. The growth medium was removed, and the cultures were rinsed twice with 0.25 ml of uptake buffer, which consists of HBSS (Gibco 11201-092) supplemented with 28 mM glucose, 15 mM HEPES, 1 mM ascorbic acid (an antioxidant), and […] pargyline (a monoamine oxidase inhibitor). The cultures were then incubated with 0.25 ml of fresh uptake buffer containing 50 nM [^3H]DA (NEN/DuPont) for 20 min at 37° C. [^3H]DA uptake was stopped by removing the incubation mixture, and cells were then washed twice with 0.5 ml of the uptake buffer at room temperature. To release [^3H]DA from the cells, the cultures were lysed with 0.2 ml of 0.1 N NaOH for 1 h at room temperature, the lysate was then added to 1 ml of Microscint-20 (Packard 6013621), and counted for radioactivity in a microplate scintillation counter (Packard TopCount, NXT). Background values were obtained by adding to the uptake buffer 0.5 mM GBR-12909, a specific inhibitor of the high-affinity uptake pump of the dopaminergic neurons, and were usually <5% of the ^3H uptake in untreated control cultures. Forskolin (Fk, 25 μM) was employed as a positive control.

[1] = Rattus norvegicus, Neuron, read-out: DA uptake % of control
[2] = Rattus norvegicus, Neuron, compound concentration 2.5 μM, read-out: DA uptake % of control

COc1cccc(C(=O)Nc2ccc(S(=O)(=O)Nc3nccs3)cc2)c1 [F′′′]
activity at 10 µM [1]: 140%

O=C(Nc1ccc(S(=O)(=O)Nc2nccs2)cc1)c1cc2ccccc2oc1=O [F′′′′]
activity at 0.25 µM (Rattus norvegicus, Neuron, compound concentration 0.25 μM, read-out: DA uptake % of control): 160%

O=C(/C=C/c1ccccc1Cl)Nc1ccc(S(=O)(=O)Nc2ccccn2)cc1 [F″]
activity at 2.5 µM [2]: 180%

O=C(/C=C/c1ccco1)Nc1ccc(S(=O)(=O)Nc2ccco2)cc1 [G]
activity at 40 µM (Rattus norvegicus, Neuron, compound concentration 40 μM, read-out: DA uptake % of control): 190%

Cc1cc(NS(=O)(=O)c2ccc(NC(=O)/C=C/c3ccccc3)cc2)no1 [G′]
activity at 20 µM [1]: 140%

O=C(/C=C/c1ccccc1)Nc1ccc(S(=O)(=O)Nc2ccccn2)cc1 [G′′′]
activity at 20 µM [1]: 180%

Cc1cccc(/C=C/C(=O)Nc2ccc(S(=O)(=O)Nc3nccs3)cc2)c1 [G′′′′]
activity at 2.5 µM [2]: 220%

O=C(/C=C/c1ccccc1C(F)(F)F)Nc1ccc(S(=O)(=O)Nc2nc[nH]n2)cc1 [G″]
activity at 1.25 µM [1]: 350%

CC(C)(C)c1ccc(C(=O)Nc2ccc(S(=O)(=O)Nc3nccs3)cc2)cc1 [H]
activity at 2.5 µM [2]: 150%

COc1ccc(C(=O)Nc2ccc([S+]([O-])Nc3nccs3)cc2)cc1 (centres unmarked) [H′]
activity at 10 µM [1]: 160%

COc1ccc(/C=C/C(=O)Nc2ccc(S(=O)(=O)Nc3ccccn3)cc2)cc1 [H′′′]
activity at 20 µM [1]: 180%

O=C(/C=C/c1cccc(C(F)(F)F)c1)Nc1ccc(S(=O)(=O)Nc2nccs2)cc1 [H′′′′]
activity at 1.25 µM [1]: 240%

O=C(/C=C/c1c(Cl)cccc1Cl)Nc1ccc(S(=O)(=O)Nc2nc[nH]n2)cc1 [H″]
activity at 1.25 µM [1]: 260%

Cc1cc(NS(=O)(=O)c2ccc(NC(=O)/C=C/c3c(Cl)cccc3Cl)cc2)no1 [I]
activity at 0.7 µM [1]: 150%

O=C(/C=C/c1ccccc1Cl)Nc1ccc(S(=O)(=O)N2CCOCC2)cc1 [I′]
activity at 2.5 µM [2]: 150%

COc1ccc(/C=C/C(=O)Nc2ccc(S(=O)(=O)Nc3nccs3)cc2)cc1 [I′′′]
activity at 5 µM [1]: 140%

O=C(/C=C/c1cccc(F)c1)Nc1ccc(S(=O)(=O)Nc2nccs2)cc1 [I′′′′]
activity at 2.5 µM [2]: 200%

COc1ccc(/C=C/C(=O)Nc2ccc(S(=O)(=O)Nc3nccs3)cc2)c(Cl)c1OC [I″]
activity at 1.25 µM [1]: 245%

COc1cc(OC)cc(C(=O)Nc2ccc(S(=O)(=O)Nc3nccs3)cc2)c1 [J]
activity at 20 µM [1]: 150%

Cc1noc(NS(=O)(=O)c2ccc(NC(=O)/C=C/c3ccc(Cl)cc3)cc2)c1C [J′]
activity at 5 µM [1]: 180%

COc1cccc(/C=C/C(=O)Nc2ccc(S(=O)(=O)Nc3nccs3)cc2)c1 [J′′′]
activity at 2.5 µM [2]: 140%

O=C(/C=C/c1ccccc1Br)Nc1ccc(S(=O)(=O)Nc2nccs2)cc1 [J′′′′]
DA uptake % of control (compound concentration 2.5 μM): 210%

Cc1ccc(C)c(/C=C/C(=O)Nc2ccc(S(=O)(=O)Nc3nccs3)cc2)c1 [J″]
activity at 1.25 µM [1]: 320%

O=C(/C=C/c1cccc(Cl)c1)Nc1ccc(S(=O)(=O)Nc2cnc3ccccc3n2)cc1 [K]
activity at 0.7 µM [1]: 190%

O=C(/C=C/c1ccccc1)Nc1ccc(S(=O)(=O)N2CCCCC2)cc1 [K′]
activity at 0.6 µM (Rattus norvegicus, Neuron, compound concentration 0.6 μM, read-out: DA uptake % of control): 125% | activity at 2.5 µM [2]: 320%

COc1ccccc1/C=C/C(=O)Nc1ccc(S(=O)(=O)Nc2nccs2)cc1 [K′′′]
activity at 2.5 µM [2]: 170%

O=C(Nc1ccc(S(=O)(=O)Nc2nccs2)cc1)c1cc2ccccc2[nH]1 [K′′′′]
activity at 2.5 µM [2]: 150%

CCOc1ccc(C(=O)Nc2ccc(S(=O)(=O)Nc3nccs3)cc2)cc1 [L]
activity at 10 µM [1]: 160%

Cc1noc(NS(=O)(=O)c2ccc(NC(=O)/C=C/c3ccccc3Cl)cc2)c1C [L′]
activity at 5 µM [1]: 140%

O=C(/C=C/c1ccc(O)cc1)Nc1ccc(S(=O)(=O)Nc2ccccn2)cc1 [L′′′]
activity at 1.25 µM [1]: 130%

COc1ccccc1/C=C\C(=O)Nc1ccc(S(=O)(=O)Nc2nccs2)cc1 [L′′′′]
activity at 2.5 µM [2]: 200%
